Assay results from US20230139171A1 (SITA Information Networking Computing UK Limited, priority 2019, published 2023).

Assays:
[1] = molecular target: T1, human TLR9 (Homo sapiens, UniProt Q9NR96); assay: TLR9 inhibition reporter assay (HEK-Blue cells, SEAP reporter, ODN2006 stimulation); assay type: cell-based; conditions: HEK-Blue cells overexpressing human TLR9, SEAP reporter, ODN2006 5 nM
T1 construct: host or cells: HEK-Blue cells
T1 sequence (Q9NR96 26-1032): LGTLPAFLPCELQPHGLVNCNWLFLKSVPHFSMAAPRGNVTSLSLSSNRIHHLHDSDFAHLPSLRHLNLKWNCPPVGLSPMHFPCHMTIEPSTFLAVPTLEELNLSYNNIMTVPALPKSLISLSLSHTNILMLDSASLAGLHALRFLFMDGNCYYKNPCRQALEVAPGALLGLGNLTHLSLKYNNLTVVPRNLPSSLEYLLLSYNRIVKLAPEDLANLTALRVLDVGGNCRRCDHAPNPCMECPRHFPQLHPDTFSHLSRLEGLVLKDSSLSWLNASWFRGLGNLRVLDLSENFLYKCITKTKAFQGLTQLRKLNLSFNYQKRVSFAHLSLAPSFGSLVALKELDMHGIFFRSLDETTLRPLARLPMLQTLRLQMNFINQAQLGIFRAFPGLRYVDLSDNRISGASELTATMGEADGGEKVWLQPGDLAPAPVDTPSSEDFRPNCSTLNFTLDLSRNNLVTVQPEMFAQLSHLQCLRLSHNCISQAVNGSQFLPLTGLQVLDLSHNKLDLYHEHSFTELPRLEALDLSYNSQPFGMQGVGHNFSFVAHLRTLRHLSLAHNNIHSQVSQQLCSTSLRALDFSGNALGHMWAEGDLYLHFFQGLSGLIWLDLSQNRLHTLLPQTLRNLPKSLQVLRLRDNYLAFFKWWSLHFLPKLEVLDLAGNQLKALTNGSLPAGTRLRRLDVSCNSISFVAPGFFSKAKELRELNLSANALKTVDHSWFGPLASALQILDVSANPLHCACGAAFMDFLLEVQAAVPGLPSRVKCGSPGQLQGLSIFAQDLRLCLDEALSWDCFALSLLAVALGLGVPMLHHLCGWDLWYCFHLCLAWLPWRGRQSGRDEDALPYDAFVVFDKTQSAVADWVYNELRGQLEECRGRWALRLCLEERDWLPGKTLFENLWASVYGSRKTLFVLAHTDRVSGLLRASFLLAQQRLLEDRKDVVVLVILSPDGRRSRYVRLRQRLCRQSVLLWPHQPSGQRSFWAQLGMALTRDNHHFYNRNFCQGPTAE
Method in brief: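 Screening used HEK-Blue cells overexpressing one human TLR (7, 8 or 9) and an IFN-β minimal promoter–NF-κB/AP-1 SEAP construct. Stimulation lasted 22 h at 37 °C with receptor-specific agonist: gardiquimod, R848 or ODN2006 at 7.5 μM, 15.9 μM and 5 nM.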

[2] = tested on: TLR7; assay: In vivo mouse TLR7 PD model (gardiquimod challenge, plasma IL-6 and IFN-alpha by ELISA); parameters: species or system C57BL/6 mice; conditions: oral
Procedure: In Vivo Mouse TLR7 PD Model:
Adult male C57BL/6 mice were used for the experiments. Mice (7 to 10 per group) were randomized into different treatment groups based on body weight. Mice from the respective treatment groups were administered orally with vehicle or test compound. Thirty min after the oral administration of vehicle or test compound, mice were challenged with intraperitoneal injection of gardiquimod for TLR7 PD model. Ninety minutes after gardiquimod injection, mice were bled under isoflurane anaesthesia and plasma IL-6 and IFN-alpha levels were estimated by using commercially available ELISA kit (BD Biosciences, PBL Life Sciences). At the end of experiment, mean cytokine data was plotted and one way ANOVA with Dunnett's test was performed to calculate the significance of test compound treated group vs. vehicle control group. Percent inhibition of cytokine induction was calculated for test compound treated group vs vehicle control group.

- IC50 [1]: 10.1 µM
SMILES: COc1cc(-c2[nH]c3sc(C4CCC(NC5COC5)CC4)nc3c2C(C)C)cn2ncnc12 (single isomer, unassigned) [Example 65, N-(4-(6-isopropyl-5-(8-methoxy-[1,2,4]triazolo[1,5-a]pyridin-6-yl)-4H-pyrrolo[3,2-d]thiazol-2-yl)cyclohexyl)oxetan-3-amine]
- % inhibition of IFN-alpha ([2]; dose 0.001 mg/kg): 50%
- % inhibition of IL6 ([2]; dose 0.001 mg/kg): 21%
- % inhibition of IFN-alpha ([2]; dose 0.005 mg/kg): 63%
- % inhibition of IL6 ([2]; dose 0.005 mg/kg): 42%
- % inhibition of IFN-alpha ([2]; dose 0.025 mg/kg): 97%
- % inhibition of IL6 ([2]; dose 0.025 mg/kg): 78%
- % inhibition of IFN-alpha ([2]; dose 0.050 mg/kg): 99%
- % inhibition of IL6 ([2]; dose 0.050 mg/kg): 94%
